The record followed here is patent publication US6936632B2, “Fused pyrrole compounds, pharmaceutical agents containing the same, and the use thereof” (Merckle GmbH, priority 2000, dated 2005).

By melting point is commonly meant the temperature of the solid-liquid transition.

On to `NS(=O)(=O)c1ccc(-c2cc3n(c2-c2ccc(F)cc2)CCC3)cc1`, for which the melting point was found to be 206.9 °C.

Consider `Cc1c(C(F)(C(F)(F)F)C(F)(F)F)c(-c2ccc(S(N)(=O)=O)cc2)c2n1CCC2`, for which the melting point was 199.6 °C.

`CS(=O)(=O)c1ccc(-c2c(-c3ccc(F)cc3)cn3c2CCC3)cc1` came in with a melting point of 191 °C.
